Data reported in patent publication US8614230B2, “Derivatives of the aminated hydroxyquinoline class for treating cancers” (Biopharmed, priority 2007, dated 2013).
Like-named read-outs stand apart in the source and are kept apart here.

How the values were obtained:
[1] = system: KB cells; assay: Cytotoxicity / cell viability on KB cells (colony-forming assay); type: cell-based, human; details: for Cytotoxicity on KB cells (percentage inhibition of cell viability): relative to reference without compound
Experimental: Cancerous KB cells are also considered, to determine the cell viability (or survival rate). This cell viability is determined according to the teaching of Nicholson K. M. et al., British Journal of Cancer, 1999, 81, 423-430.
KB cells are human carcinoma cell lines, KB-3-1. These cells are maintained in a culture medium, “Dulbecco's modified Eagle's medium” (DMEM—Sigma), which contains 0.11 g/l of sodium pyruvate and 4.5 g/l of glucose, supplemented with 10% (v/v) fetal calf serum, penicillin (32 μg/ml) and streptomycin (50 μg/ml). The cells are cultured as monolayers and are incubated at 37° C. in a humid atmosphere (95% air/5% CO2).
The preceding KB cells are then incubated in 6- or 96-well plates in the presence of the test compounds of the invention, dissolved in dimethyl sulfoxide (DMSO). The content of surviving cells is measured by the “colony-forming assay” test, in which the cells are redistributed at a density of 100 to 300 cells per well in 24-well plates, for a period of 8 days, and are then stained with Leishman's reagent (0.2% in methanol). The colonies of more than 50 cells are counted visually under a microscope, the survival rate being expressed on the colonies formed in the presence of the compounds of the invention relative to cell colonies not treated with said compounds. The determination of the IC50 values (concentration of compounds in the reaction medium for which 50% of the tested tumor cells survived the treatment) enables comparison of the efficacy of these compounds.

[2] = system: U87/GFP cells; assay: Antiproliferative effect on U87/GFP cells (flash cytometry); type: cell-based, human; details: for inhibition at 10 µM / inhibition at 2 µM: read-out: Antiproliferative effect on U87/GFP cells: percentage inhibition
Experimental: For the U-87/GFP cells, the control of cell proliferation and migration in the presence of the compounds (I) of the invention is performed via a colorimetric method (MTS) and is performed according to known standard protocols. The methodologies implemented use flash cytometry (Trophos S.A., Marseilles, France). The flash cytometry technique involves fluorescence, which consists of irradiating a compound at a set wavelength and of recording the fluorescence emitted at another wavelength. This technique is performed with a flash cytometer and adapted for 96-well test plates. The excitation and emission wavelengths in the context of use of this fluorescence are located in the 485-495 nm range. The measured fluorescence expresses the amount of cells surviving after treatment with the compounds of the invention. The publications by Luby-Phelps K. et al., J. Histochemistry and Cytometry, 2003, 51, 271-274 and Modarai B. et al., Circulation, 2005, 111, 2645-2653 may be mentioned by way of reference for the above methods.
The cells of the U87/GFP lines are cultured in 96-well plates according to a standard methodology described by Bajetto et al., Neurochemistry International, 2006, 43, 31-38 in the presence of different concentrations of the compounds of the invention.
The cell proliferation is determined and quantified according to standard methods known to those skilled in the art. A 100% proliferation is attributed to the untreated cells and a percentage less than 100% is obtained when the same cells are treated with the compounds of the invention.
(§1) The cell proliferation and migration are determined by imaging using a flash cytometer (Trophos S.A., Marseilles, France), and the calculations are performed using the “Metamorph 4.6” imaging signal processing software (Molecular Devices, USA), the use of which, which is known in the field, makes it possible to determine the above two effects independently of each other.

[3] = system: U87/GFP cells; assay: Antimigratory effect on U87/GFP cells (scratch technique); type: cell-based, human
Experimental: The determination of the antimigratory activity of the compounds (I) of the invention on these same cell lines, cultured in MEM medium (Minimum Essential Medium) is performed via the “scratch” technique that consists in scratching a cell lawn using a micropipette cone. By comparison with these same cells not containing the compounds of the invention, the antimigratory effect is determined. A 100% migration is attributed to the untreated cells, whereas, as a function of the concentration of the compounds (I) of the invention, total stoppage of migration is determined by observation of the “scratch” remaining unfilled by the cell migration, by means of computer software.
as §1

[4] = system: mice; details: comparison value for anticancer drugs; cited from earlier work
[5] = Homo sapiens, KB, approximate value given in the description, read-out: cytotoxic activity IC50 on KB cells
[6] = Homo sapiens, KB, first value of two experiments performed in parallel, read-out: Cytotoxicity on KB cells (IC50)
[7] = Homo sapiens, KB, second value of two experiments performed in parallel, read-out: Cytotoxicity on KB cells (IC50)
[8] = first value of two experiments performed in parallel, read-out: Cytotoxicity on KB cells (IC50)
[9] = second value of two experiments performed in parallel, read-out: Cytotoxicity on KB cells (IC50)
[10] = concentration giving 80% inhibition of migration
[11] = Homo sapiens, concentration giving 50% inhibition of proliferation
[12] = concentration giving 50% inhibition of proliferation

SMILES	Cytotoxicity on KB cells (percentage inhibition of cell viability) ([1]; at 1 μM)	IC50 [1, 6]	IC50 [1, 7]	IC50 [1, 8]	IC50 [1, 9]	other results
CC(C)(C)OC(=O)N1CCCN(Cc2ccc(O)c3ncccc23)CCCN(C(=O)OC(C)(C)C)CCN(C(=O)OC(C)(C)C)CCC1 [I2, tri-tert-butyl 12-((8-hydroxyquinolin-5-yl)methyl)-1,4,8,12-tetraazacyclopentadecane-1,4,8-tricarboxylate]	28% at 1 μM	–	–	–	–	–
CC(C)(C)OC(=O)N1CCCN(C(=O)OC(C)(C)C)CCN(C(=O)OC(C)(C)C)CCCNC(Cc2ccc(O)c3ncccc23)CC1 (stereo not shown) [I3, tri-tert-butyl 11-((8-hydroxyquinolin-5-yl)methyl)-1,4,8,12-tetraazacyclopentadecane-1,4,8-tricarboxylate]	15% at 1 μM	–	–	–	–	–
Oc1ccc(CN2CCCNCCNCCCNCC2)c2cccnc12 [I4, 5-((1,4,8,11-tetraazacyclotetradecane-1-yl)methyl)quinolin-8-ol]	27% at 1 μM	–	–	–	–	–
Oc1ccc(CN2CCCNCCN(Cc3ccc(CN4CCCNCCNCCCNCC4)cc3)CCCNCC2)c2cccnc12 [I7, 5-((8-(4-((1,4,8,11-tetraazacyclotetradecane-1-yl)methyl)benzyl)-1,4,8,11-tetraazacyclotetradecan-1-yl)methyl)quinolin-8-ol]	93% at 1 μM	122 nM	303 nM	–	–	IC50 [1, 5]: ~100 nM; Antiproliferative effect on U87/GFP cells: concentration at which activity is observed ([2]; percentage not given): 2 µM
Oc1ccc(CN2CCN(Cc3ccc(O)c4ncccc34)CC2)c2cccnc12 [I8, 5,5′-(piperazine-1,4-diylbis (methylene))diquinolin-8-ol]	94% at 1 μM	43 nM	32 nM	–	–	–
CC(C)(C)OC(=O)N1CCCN(C(=O)OC(C)(C)C)CCN(Cc2ccc(O)c3ncccc23)CCCN(Cc2ccc(O)c3ncccc23)CC1 [I9, di-tert-butyl 4,8-bis((8-hydroxyquinolin-5-yl)methyl)-1,4,8,11-tetraazacyclotetradecane-1,11-dicarboxylate]	77% at 1 μM	398 nM	639 nM	–	–	IC50 [1, 5]: ~400 nM
Oc1ccc(CN(Cc2ccccc2)Cc2ccc(O)c3ncccc23)c2cccnc12 [I12]	93% at 1 μM	–	–	1.5 nM	5 nM	Antimigratory effect on U87/GFP cells: percentage inhibition ([3]; at 2 μM): 80%; IC50 [3, 10]: 2 µM; Antiproliferative effect on U87/GFP cells: percentage inhibition ([2]; at 0.5 μM): 30%; IC50 ([2]; concentration giving 30% inhibition of proliferation): 0.5 µM
Oc1ccc(CNCc2ccccc2)c2cccnc12 [I13, 5-((benzylamino)methyl)quinolin-8-ol]	90% at 1 μM	> 1000 nM	1300 nM	–	–	inhibition at 10 µM ([2]; Homo sapiens): 50%; IC50 [2, 11]: 10 µM
Cc1ccc(CNCc2ccc(O)c3ncccc23)cc1 [I16, 5-((4-methylbenzylamino)methyl)quinolin-8-ol]	–	11000 nM	10000 nM	–	–	Cytotoxicity on KB cells (percentage inhibition of cell viability) ([1]; at 2 μM): 50% at 2 μM; inhibition at 2 µM ([3]; Homo sapiens, at 2 μM, read-out: Antimigratory effect on U87/GFP cells: percentage inhibition): 80%; IC50 [3, 10]: 2 µM; inhibition at 2 µM ([2]; Homo sapiens): 80%; IC50 ([2]; concentration giving 80% inhibition of proliferation): 2 µM
Oc1ccc(NCc2cccc3ccccc23)c2cccnc12 [I17, 5-(naphthalen-1-ylmethylamino)quinolin-8-ol]	–	1000 nM	950 nM	–	–	–
Oc1ccc(N(Cc2cccc3ccccc23)c2ccc(O)c3ncccc23)c2cccnc12 [I18, 5,5′-(naphthalen-1-ylmethylazanediyl)diquinolin-8-ol]	–	5 nM	4.5 nM	–	–	inhibition at 2 µM ([2]; Homo sapiens): 50%; IC50 [2, 11]: 2 µM
CC(NCc1ccc(O)c2ncccc12)c1ccccc1 (stereo not shown) [I33]	–	–	–	1000 nM	1100 nM	Antiproliferative effect on U87/GFP cells: percentage inhibition ([2]; at 0.5 μM): 50%; IC50 [2, 12]: 0.5 µM
Oc1ccc(CNCc2ccc(C(F)(F)F)cc2)c2cccnc12 [I34]	–	–	–	10000 nM	9000 nM	Antiproliferative effect on U87/GFP cells: percentage inhibition ([2]; at 5-10 μM): 50%; IC50 [2, 12]: 5 to 10 µM
Oc1ccc(CNCc2cccc(C(F)(F)F)c2)c2cccnc12 [I35]	–	–	–	200 nM	220 nM	–
CC(C)(C)OC(=O)N(Cc1cccc(C(F)(F)F)c1)Cc1ccc(O)c2ncccc12 [I36]	–	–	–	1000 nM	1100 nM	Antiproliferative effect on U87/GFP cells: percentage inhibition ([2]; at 5-10 μM): 50%; IC50 [2, 12]: 5 to 10 µM
CC(C)(C)OC(=O)N(Cc1ccc(C(F)(F)F)cc1)Cc1ccc(O)c2ncccc12 [I37]	–	–	–	8000 nM	9000 nM	Antiproliferative effect on U87/GFP cells: percentage inhibition ([2]; at 5-10 μM): 50%; IC50 [2, 12]: 5 to 10 µM
CC(C)(C)OC(=O)N(Cc1ccccc1)Cc1ccc(O)c2ncccc12 [I38]	–	–	–	900 nM	1100 nM	Antiproliferative effect on U87/GFP cells: percentage inhibition ([2]; at 5-10 μM): 50%; IC50 [2, 12]: 5 to 10 µM
CC(=O)O[C@H]1C(=O)[C@@]2(C)[C@H]([C@H](OC(=O)c3ccccc3)[C@]3(O)C[C@H](OC(=O)[C@H](O)[C@@H](NC(=O)c4ccccc4)c4ccccc4)C(C)=C1C3(C)C)[C@]1(OC(C)=O)CO[C@@H]1C[C@@H]2O [Taxol]	–	–	–	–	–	LD50 [4]: about 10 mg/kg
Cn1nnc2c(C(N)=O)ncn2c1=O [Temodal ®, reference compound]	–	–	–	–	–	inhibition at 10 µM ([3]; Homo sapiens, at 10 μM, read-out: Antimigratory effect on U87/GFP cells: percentage inhibition): 50%; IC50 ([3]; Homo sapiens, concentration giving 50% inhibition of migration): 10 µM; inhibition at 10 µM ([2]; Homo sapiens): 50%; IC50 [2, 11]: 10 µM
